The values below come from PubChem BioAssay AID624132 (Broad Institute, 2012).

Records with an inconclusive call do not appear. Some results are limits rather than exact numbers.

In this assay the test system is Clone20 osteoblast Shn3 3'UTR firefly luciferase, 24 h. The assay is described as follows: Shn3 3'UTR reporter inhibitors, dose response, cell-based, Clone20 osteoblasts, firefly luciferase, cherry-picked (AID 624132).
Usually AC50 stands for the concentration at which the activity in the assay is half-maximal. Turning to `CC(=O)OCC12CC(OC(=O)CC(C)C)C(C)=CC1OC1C(O)C(OC(C)=O)C2(C)C12CO2` (stereo not drawn), the AC50 was less than 260 nM.
As for `C[C@H]1[C@@H](OS(=O)(=O)O)C[C@@H]2C[C@H]([C@@H](O)c3cc(=O)[nH]c(=O)[nH]3)NC3=NC[C@H]1N32`, the figure is 1320 nM.
As for `CC(=O)OC1C(=O)OCC23CCC4(C)OC4C2OC2CC(OC(=O)C=CC=CC(=O)OCCC1C)C3(C)C21CO1` (stereo not drawn), the figure is less than 260 nM; as for `CC1=CC2OC3CC4OC(=O)C=CC=CC(=O)OCCC(C)C(O)C(=O)OCC2(CC1O)C4(C)C31CO1` (stereo not drawn), less than 260 nM; as for `CC(=O)OC1CC2OC3C=C(C)CCC3(C)C1(C)C21CO1` (stereo not drawn), 829 nM.
The same measure for `CC(=O)OC[C@]12CCC(C)=C[C@H]1O[C@@H]1[C@H](O)[C@@H](OC(C)=O)[C@@]2(C)[C@]12CO2`: less than 260 nM; for `CC1=CC2OC3CC4OC(=O)C=CC=CC(C(C)O)OCC(O)C(C)CC(=O)OCC2(CC1O)C4(C)C31CO1` (stereo not drawn): less than 260 nM; for `CC1=CC2OC3CC4OC(=O)C=CC=CC(C(C)O)OCC(O)C5(C)OC5C(=O)OCC2(CC1O)C4(C)C31CO1` (stereo not drawn): less than 260 nM.
